The values below come from patent publication US20230243825A1, “ADAPTIVE NANOPARTICLE PLATFORMS FOR HIGH THROUGHPUT EXPANSION AND DETECTION OF ANTIGEN-SPECIFIC T CELLS” (The Johns Hopkins University, priority 2020, published 2023).

For one assay, the system named is B16-OVA tumor cells. Nature of the assay: IFN-γ pre-incubation of tumor cells. The assay is classed as cell-based. Conditions: overnight pre-incubation. The procedure:
Whether this same approach can be expanded to other tumor models was then examined by applying it to B16-OVA. Initial results were inconclusive, so an attempt to increase the amount of recoverable peptide was made by pre-incubating tumor cells overnight with IFN-γ to upregulate MHC I on their surface. […] The calculated yield was approximately […] of peptide per 1×10^4 tumor cells, still roughly 0.00002% (w/w) of the eluted 100 micrograms of peptide.

The subject of assay [1] is SIY and VDW-specific CD8+ T cells. In words: In vivo peptide vaccination with poly I:C, dimer staining. Conditions: Day 0 and Day 7, harvest Day 15. Set-up: species or system mouse. An excerpt: On Day 15, mouse spleens and lymph nodes were harvested for dimer and particle staining, following similar protocols described above.

With IFNγ, the “MHC I expression on tumor cells” value in the assay on B16-OVA tumor cells is reported as “drastically increased”. For the substance VDWENVSPEL, in assay [1], the “peptide-specific CD8+ T cells, dimer staining pre- vs post-vaccination” value was “significant increases”.

As to SIYRYYGL, the “peptide-specific CD8+ T cells, dimer staining pre- vs post-vaccination” value in assay [1] is reported as “significant increases”.
